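Interpolation was linear, between the two tested concentrations surrounding the appropriate level; five concentrations were tested over 48 hours in 96-well plates. The concentration for 50% growth inhibition is given as GI50.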 Active and inactive are the calls of the source. No stated cut-off is given here; in the data, active = GI50 up to about 1.1 µM and inactive = higher.
Experiments:
Assay in all cases: inhibition of tumour cell growth, NCI panel, 48 h
A549 = system: A549
ACHN = system: ACHN
DLD-1 = system: DLD-1
DMS-114 = system: DMS-114
DMS-273 = system: DMS-273
HCT-15 = system: HCT-15
KM-20L2 = system: KM-20L2
LOX IMVI = system: LOX IMVI
M19-MEL = system: M19-MEL
NCI-H226 = system: NCI-H226
OVCAR-3 = system: OVCAR-3
RXF 393 = system: RXF 393
SF-268 = system: SF-268
SK-MEL-2 = system: SK-MEL-2
SK-OV-3 = system: SK-OV-3
SNB-78 = system: SNB-78
SW-620 = system: SW-620
XF498 = system: XF498

| SMILES | GI50 (A549) | GI50 (ACHN) | GI50 (DLD-1) | GI50 (DMS-114) | GI50 (DMS-273) | GI50 (HCT-15) [µM] | GI50 (KM-20L2) | GI50 (LOX IMVI) | GI50 (M19-MEL) | GI50 (NCI-H226) | GI50 (OVCAR-3) | GI50 (RXF 393) | GI50 (SF-268) | GI50 (SK-MEL-2) | GI50 (SK-OV-3) | GI50 (SNB-78) | GI50 (SW-620) | GI50 (XF498) |
| --- | --- | --- | --- | --- | --- | --- | --- | --- | --- | --- | --- | --- | --- | --- | --- | --- | --- | --- |
| COc1ccccc1NC(=O)C1=C(C)NC(C)=C(C(=O)Nc2ccccc2OC)C1c1cccc2ccccc12 | 21.9 µM (inactive) | 11.7 µM (inactive) | 38.7 µM (inactive) | 25.6 µM (inactive) | 80.9 µM (inactive) | 28.4 | > 100 µM (inactive) | > 100 µM (inactive) | 90.4 µM (inactive) | 50.7 µM (inactive) | 64 µM (inactive) | 21.2 µM (inactive) | 29.4 µM (inactive) | > 100 µM (inactive) | > 100 µM (inactive) | 4.44 µM (inactive) | > 100 µM (inactive) | 45.3 µM (inactive) |
| COc1ccc2nc3cc(Cl)ccc3c(Sc3ccc([N+](=O)[O-])cc3)c2c1 | > 10 µM (inactive) | > 10 µM (inactive) | > 10 µM (inactive) | > 10 µM (inactive) | > 10 µM (inactive) | > 10 | > 10 µM (inactive) | > 10 µM (inactive) | > 10 µM (inactive) | > 10 µM (inactive) | > 10 µM (inactive) | > 10 µM (inactive) | > 10 µM (inactive) | > 10 µM (inactive) | > 10 µM (inactive) | > 10 µM (inactive) | > 10 µM (inactive) | > 10 µM (inactive) |
| O=C(CCCCCCCCCCc1ccccc1)c1c(O)cccc1O | 27.7 µM (inactive) | 28.1 µM (inactive) | 21.3 µM (inactive) | 20.7 µM (inactive) | 18.2 µM (inactive) | 20 | 61.7 µM (inactive) | 27.2 µM (inactive) | 20.7 µM (inactive) | 21.2 µM (inactive) | 27 µM (inactive) | 19.4 µM (inactive) | 23.8 µM (inactive) | 15.8 µM (inactive) | 44.8 µM (inactive) | 45.7 µM (inactive) | 19.5 µM (inactive) | 20.2 µM (inactive) |
| O=C1c2c(n(Cc3ccccc3)c(=O)n2Cc2ccccc2)C(=O)N1Cc1ccccc1 | 41.9 µM (inactive) | 91.6 µM (inactive) | 63 µM (inactive) | 34.6 µM (inactive) | 31.4 µM (inactive) | 47.8 | 52.7 µM (inactive) | 32.4 µM (inactive) | > 100 µM (inactive) | 92.7 µM (inactive) | 49.2 µM (inactive) | 37.9 µM (inactive) | 64.1 µM (inactive) | 46.3 µM (inactive) | > 100 µM (inactive) | > 100 µM (inactive) | 47.9 µM (inactive) | 16.4 µM (inactive) |
| C/C(=C1/N=C(c2cc([N+](=O)[O-])ccc2Cl)N(c2cccc(C)c2)C1=O)c1cc2ccccc2oc1=O | > 100 µM (inactive) | 48.8 µM (inactive) | 31.7 µM (inactive) | 27.1 µM (inactive) | 80.7 µM (inactive) | 36.7 | > 100 µM (inactive) | 16.7 µM (inactive) | 66.2 µM (inactive) | 43.6 µM (inactive) | 28.3 µM (inactive) | 59.6 µM (inactive) | > 100 µM (inactive) | > 100 µM (inactive) | > 100 µM (inactive) | > 100 µM (inactive) | 29.4 µM (inactive) | 21 µM (inactive) |
| Clc1ncnc2c1ncn2CCCCCCCCCCCCn1cnc2c(Cl)ncnc21 | 11.7 µM (inactive) | 14.5 µM (inactive) | 7.94 µM (inactive) | 1.67 µM (inactive) | 2.71 µM (inactive) | 13.1 | 16.1 µM (inactive) | 1.43 µM (inactive) | 2.27 µM (inactive) | 11.7 µM (inactive) | 11.2 µM (inactive) | 16.8 µM (inactive) | 14.3 µM (inactive) | 13.4 µM (inactive) | 16.4 µM (inactive) | 3.56 µM (inactive) | 22.4 µM (inactive) | 9.38 µM (inactive) |
| CCCCCCCCCCCC1CC(=O)NCCCN(C)CCCCN(C)CCCN1C (stereo unspecified) [BUDMUNCHIAMINE A] | 1.76 µM (inactive) | 1.69 µM (inactive) | 1.6 µM (inactive) | 1.78 µM (inactive) | 1.24 µM (inactive) | 1.63 | 1.65 µM (inactive) | 1.48 µM (inactive) | 1.76 µM (inactive) | 1.93 µM (inactive) | 1.69 µM (inactive) | 1.6 µM (inactive) | 1.85 µM (inactive) | 1.75 µM (inactive) | 1.8 µM (inactive) | 1.79 µM (inactive) | 1.06 µM (active) | 1.65 µM (inactive) |

From ChEMBL document CHEMBL1201862, “PubChem BioAssay data set” (2004)
